Source: US9464064B2, “HCV helicase inhibitors and methods of use thereof” (University of Kansas, priority 2011, dated 2016)

Molecular target: T1, HCV NS3 helicase NS3h_1b(con1) (Hepatitis C virus genotype 1b, UniProt Q9WMX2)
T1 construct: truncated C-terminally His-tagged NS3 proteins lacking the N-terminal protease, called NS3h; His-tag (C); made in house
Test: MBHA screen of NCI mechanistic set library at 20 μM (percent inhibition, compound interference)
Format: biochemical
Conditions: compounds at 20 μM; for Inh. (%) (Inhibition): calculated from Equation 1
Procedure, shortened: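 Molecular beacon-based DNA unwinding assay; compounds screened at 20 μM in triplicate, with DMSO-only negative and 500 nM dT20 positive controls. Fluorescence (ex 643/em 670 nm) was read before and 30 min after adding ATP to 1 mM. Percent inhibition came from the change relative to DMSO controls; interference from pre-ATP fluorescence versus DMSO controls.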

[1] = assay interference calculated with Equation 2 (fluorescence vs DMSO-only controls before ATP)
[2] = MBHA with DNA substrate, assay interference calculated with Equation 2

T1 sequence (Q9WMX2 1192-1657): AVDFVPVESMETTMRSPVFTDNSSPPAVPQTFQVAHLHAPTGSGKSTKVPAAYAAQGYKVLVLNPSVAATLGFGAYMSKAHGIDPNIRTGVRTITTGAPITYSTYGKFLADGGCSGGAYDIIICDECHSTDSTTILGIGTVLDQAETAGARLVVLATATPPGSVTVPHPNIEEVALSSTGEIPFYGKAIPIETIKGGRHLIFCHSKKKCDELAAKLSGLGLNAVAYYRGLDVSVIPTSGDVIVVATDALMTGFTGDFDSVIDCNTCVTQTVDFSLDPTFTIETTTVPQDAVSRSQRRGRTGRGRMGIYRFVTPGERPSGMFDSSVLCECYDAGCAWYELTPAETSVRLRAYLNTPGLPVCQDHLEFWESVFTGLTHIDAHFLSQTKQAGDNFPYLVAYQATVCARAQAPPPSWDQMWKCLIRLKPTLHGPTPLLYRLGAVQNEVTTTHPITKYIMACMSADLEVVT

Structure (SMILES)	Inh. (%) (Inhibition) (MBHA with a DNA substrate)	Int.* (Ratio) (Interference) [1]	Int.* (Ratio) (Interference) [2]	Inh. (%) (Inhibition) (MBHA with DNA substrate)
COC(=O)NC1C(C)OC(OC2C/C=C(\C)C3C=C[C@H]4C(OC5CC(OC6CCC(OC7CC(O)C(OC8CCC(O)C(C)O8)C(C)O7)C(C)O6)C(OC(C)=O)C(C)O5)C(C)CC(C)[C@@H]4[C@@]3(C)C([O-])=C3C(=O)OC4(CC(C=O)=CC(O)[C@@H]4/C=C\2C)C3=O)CC1(C)[N+](=O)[O-].[Na+] (stereo partly drawn) [Compound 333856]	−5.2	0.95		
Cc1c2ccnc(C(N)=O)c2c(C)c2c1[nH]c1ccccc12.Cl [Compound 335142]			0.95	−1.5
O=C1NC(=S)NC(=O)C1C(=O)Nc1ccccc1 [Compound 336628]			0.90	17.4
O=C1c2ccccc2-c2c1c1ccccc1c(=O)n2Cc1ccccc1 [Compound 337612]			0.97	−16.5
C(=N\NC1=NCCN1)/c1c2ccccc2c(/C=N/NC2=NCCN2)c2ccccc12 [Compound 337766]			0.65	70.0
CN(C)c1ccc2c(SCC(=O)OCC(=O)[C@@]3(O)CC[C@H]4[C@@H]5CCC6=CC(=O)C=C[C@]6(C)[C@H]5C(=O)C[C@@]43C)c3ccc(N(C)C)cc3nc2c1 [Compound 337851]			0.29	2.3
Oc1cc2c3c(c1)c1cc4c(cc1c[n+]3CC2)OCO4.[Cl-] [Compound 338259]			0.93	45.5
COc1nc(C(Cl)(Cl)Cl)c(Cl)c(OC)c1Cl [Compound 338720]	7.0	0.93		
Nc1ccc(S(=O)(=O)Nc2cnc3c(Cl)cccc3n2)cc1 [Compound 339004]			0.89	18.5
O=C(CCCN1CCC(C(O)c2ccc(F)cc2)CC1)c1ccc(F)cc1 (stereo not drawn) [Compound 343513]			0.91	−8.7
NP(=O)(Oc1c2occc2cc2ccc(=O)oc12)N(CCCl)CCCl (stereo not drawn) [Compound 345081]	9.2	0.95		
CC1Oc2cc3c(-c4c(O)cc(O)c5c(O)c6c(cc45)OC(C)C(C)C6=O)c(O)cc(O)c3c(O)c2C(=O)C1C (stereo not drawn) [Compound 345647]			0.80	−17.6
O=[Se]([O-])[O-].[Na+].[Na+] [Compound 347466]			0.89	27.4
O=C1N[C@@H]2C(=C[C@H](O)[C@@H](O)[C@H]2O)c2cc3c(cc21)OCO3 [Compound 349155]			0.98	4.1
O=C1N[C@H]2[C@H](O)[C@H](O)[C@@H](O)[C@H](O)[C@@H]2c2cc3c(c(O)c21)OCO3 [Compound 349156]			0.95	−10.2
CC(O)CCC(=O)c1ccoc1 (stereo not drawn) [Compound 349438]	10.5	1.01		
COC1=C(C)C(=O)C2=C(C1=O)C(CO)N1C(C#N)C3CC4C(C1C2N1CCOC41)N3C (stereo not drawn) [Compound 349644]	7.1	0.91		
Cc1ccc(S(=O)(=O)ON=C2CC(c3ccccc3)N(C)C(c3ccccc3)C2)cc1 (stereo not drawn) [Compound 351306]			0.92	25.4
COc1cc(C(C)c2cc3c(cc2OCCO)OCO3)cc(OC)c1OC (stereo not drawn) [Compound 352876]	−19.4	1.08		
Nc1ncnc2c([C@@H]3O[C@H](CO)[C@@H](O)[C@H]3O)c[nH]c12 [Compound 352890]	7.0	0.94		
CCOc1ccc(C(C)c2cc3c(cc2OC)OCO3)cc1 (stereo not drawn) [Compound 353648]			0.94	1.7
C=Cc1cc(OC)c2c(c1)c(=O)oc1c2cc(OC)c2c(O)ccc(C3OC(C)C(O)C(C)(O)C3O)c21 (stereo not drawn) [Compound 354844]			0.93	32.6
NC(=O)C1=C[C@H]2[C@H]3C=C[C@@]2(O)C(=O)O[C@@H]3O1 [Compound 357683]			0.99	2.7

Structure (SMILES)	Inh. (%) (Inhibition) (MBHA with a DNA substrate)	Int.* (Ratio) (Interference) [1]	Int.* (Ratio) (Interference) [2]	Inh. (%) (Inhibition) (MBHA with DNA substrate)
CCN(CC)Cc1cc(N=Nc2c(O)ccc3c(N=Nc4ccc(O)c(CN(CC)CC)c4)c(O)ccc23)ccc1O.Cl [Compound 359463]	7.3	0.45		
Cc1ccc2c(c1)C1(C)OC(C=CC1=O)O2 (stereo not drawn) [Compound 359892]			0.98	−0.7
CN1CCN(CN2C(=O)C3C4C=CC(C3C2=O)C2C3C(=O)N(CN5CCN(C)CC5)C(=O)C3C42)CC1 (stereo not drawn) [Compound 361813]			1.03	21.8
COC(=O)NC1C(C)OC(OC2C/C=C(/C)C3C=CC4C(OC5CC(OC6CC(O)C(OC7CC(O)C(OC)C(C)O7)C(C)O6)C(O)C(C)O5)C(C)CC(C)C4C3(C)/C(O)=C3\C(=O)OC4(CC(C)C(CO)=CC4/C=C\2C)C3=O)CC1(C)[N+](=O)[O-] (stereo not drawn) [Compound 363182]			1.08	22.2
CC1(C)C2CCC1(CS(=O)(=O)O)C(=O)C2.CN1C(c2ccccc2)CC(=NO)CC1c1ccccc1 (stereo not drawn) [Compound 363744]			1.04	17.2
Cl.O=C1c2cccc(NCCCNCCO)c2C(=O)c2cccc(NCCCNCCO)c21 [Compound 363998]			0.17	138.7
N#CC(=S)Nc1ccc(F)cc1 [Compound 369317]			0.95	2.8
Cc1ccc(NC(=S)C#N)c(C)c1 [Compound 369318]			0.95	−0.4
COc1ccc2c(c1)CCc1c-2n[nH]c1-c1[nH]nc2c1CCc1cc(OC)ccc1-2 [Compound 371846]			0.86	2.1
CN1C(Cl)=NS(=O)(=O)c2ccccc21 [Compound 373853]			0.92	5.1
Cc1ccc(NC(=O)c2cc3ccccc3c(N=Nc3ccccc3O)c2O)c(C)c1 [Compound 374898]			0.97	3.2
CC1(C)CCCC2(C)C3=C(CCC12)C(=O)OC3 (stereo not drawn) [Compound 375294]			0.87	13.9
Nc1ccn([C@@H]2C=C(CO)[C@@H](O)[C@H]2O)c(=O)n1 [Compound 375575]			0.93	12.9
COc1cc2oc3cc(=O)cc4oc(-c5ccccc5)cc(c2c2c1CCC(c1ccccc1)O2)c43 (stereo not drawn) [Compound 376248]	11.4	0.80		
C/C(=N\NC(=S)N1CCN(C2CCCCCC2)CC1)c1ccccn1 [Compound 376265]			1.02	−13.7
CC1(C)NC(=O)N(CCCCCCN2C(=O)NC(C)(C)C2=O)C1=O [Compound 376791]			1.08	−7.3
N#CC(=S)Nc1ccc(Cl)c(Cl)c1 [Compound 379531]	11.6	0.89		
C=C(CN(C)C)C(=O)c1ccccc1Cl.Cl [Compound 382007]			0.85	22.9
Br.CCN(CC)CC(C)(C)C(=O)/C=C/c1ccc(C)cc1 [Compound 382766]			0.90	19.2
C=C1CC[C@@H]2[C@](C)(CO)[C@H](O)CC[C@@]2(C)[C@@H]1C/C=C1/C(=O)OC[C@H]1O [Compound 383468]	9.4	0.98		
O=C1C=Cc2ncccc2C1=O [Compound 400944]	−6.2	0.84		
CC1=C2C(=CC(C)(C)[C@@H]2O)C(=O)[C@](C)(O)C12CC2 [Compound 400978]			1.10	17.9
